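Step 1: Grow cells in 96-well plates. Step 2: Expose to compound for 48 hours at 5 concentrations. Step 3: Interpolate endpoints linearly; if unreached, use highest concentration. GI50 = concentration required for 50% inhibition of growth.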 Calls of active or inactive are those of the source. No stated cut-off is given here; in the data, active = GI50 up to about 1.1 µM and inactive = higher.
What was measured:
Assay in all cases: NCI anticancer screen, dose series, 48 h
MDA-MB-435 = tested on: MDA-MB-435
NCI-H460 = tested on: NCI-H460
Malme-3M = tested on: Malme-3M
SF-295 = tested on: SF-295
T47D = tested on: T47D
NCI-H23 = tested on: NCI-H23
DU-145 = tested on: DU-145
MCF7 = tested on: MCF7
EKVX = tested on: EKVX
SK-OV-3 = tested on: SK-OV-3
OVCAR-4 = tested on: OVCAR-4
MDA-MB-231 = tested on: MDA-MB-231
HCT-15 = tested on: HCT-15
SW-620 = tested on: SW-620
UO-31 = tested on: UO-31
NCI-H522 = tested on: NCI-H522
SF-268 = tested on: SF-268
MDA-N = tested on: MDA-N

SMILES | GI50 (MDA-MB-435) | GI50 (NCI-H460) | GI50 (Malme-3M) | GI50 (SF-295) | GI50 (T47D) | GI50 (NCI-H23) | GI50 (DU-145) | GI50 (MCF7) | GI50 (EKVX) | GI50 (SK-OV-3) | GI50 (OVCAR-4) | GI50 (MDA-MB-231) | GI50 (HCT-15) [µM] | GI50 (SW-620) | GI50 (UO-31) | GI50 (NCI-H522) | GI50 (SF-268) | GI50 (MDA-N)
COc1cc(/C=C/C(=O)C2(C(=O)/C=C/c3cc(OC)c(OC)c(OC)c3)CCCCC2)cc(OC)c1OC | 21.5 µM (inactive) | 80.7 µM (inactive) | 37.6 µM (inactive) | 34.8 µM (inactive) | 76.2 µM (inactive) | 53.3 µM (inactive) | 32.7 µM (inactive) | 27.6 µM (inactive) | 27.5 µM (inactive) | 68.9 µM (inactive) | 46.6 µM (inactive) | 42.9 µM (inactive) | 33.3 | 38.3 µM (inactive) | 60.7 µM (inactive) | 30.1 µM (inactive) | 40.5 µM (inactive) | –
CC(C)(C)OC(=O)NC(C)(C)C(=O)NCCC(=O)O | > 100 µM (inactive) | > 100 µM (inactive) | – | > 100 µM (inactive) | > 100 µM (inactive) | > 100 µM (inactive) | – | > 100 µM (inactive) | > 100 µM (inactive) | 74.6 µM (inactive) | > 100 µM (inactive) | > 100 µM (inactive) | > 100 | > 100 µM (inactive) | > 100 µM (inactive) | > 100 µM (inactive) | > 100 µM (inactive) | –
Cc1ccccc1/N=N/c1ccc(/N=N/c2c(O)ccc3cc(S(=O)(=O)O)cc(S(=O)(=O)O)c23)c(C)c1 | > 100 µM (inactive) | > 100 µM (inactive) | > 100 µM (inactive) | > 100 µM (inactive) | – | > 100 µM (inactive) | – | > 100 µM (inactive) | > 100 µM (inactive) | > 100 µM (inactive) | > 100 µM (inactive) | > 100 µM (inactive) | > 100 | > 100 µM (inactive) | > 100 µM (inactive) | > 100 µM (inactive) | > 100 µM (inactive) | –
O=[N+]([O-])/C(C(Cl)=C(Cl)Cl)=C(\Nc1ccccc1)n1nnc2ccccc21 | 26.8 µM (inactive) | 77.8 µM (inactive) | 46.1 µM (inactive) | 44.7 µM (inactive) | > 100 µM (inactive) | 25.9 µM (inactive) | – | 55.8 µM (inactive) | > 100 µM (inactive) | 71.3 µM (inactive) | 17.6 µM (inactive) | 27 µM (inactive) | > 100 | 32.2 µM (inactive) | 21.9 µM (inactive) | – | 19.8 µM (inactive) | 54.8 µM (inactive)
Cc1nc2ccc(S(=O)(=O)Nc3ccccc3)cc2c(=O)n1NC(=O)CNc1ccccc1 | > 100 µM (inactive) | > 100 µM (inactive) | > 100 µM (inactive) | > 100 µM (inactive) | – | > 100 µM (inactive) | > 100 µM (inactive) | > 100 µM (inactive) | > 100 µM (inactive) | > 100 µM (inactive) | > 100 µM (inactive) | > 100 µM (inactive) | > 100 | > 100 µM (inactive) | > 100 µM (inactive) | > 100 µM (inactive) | > 100 µM (inactive) | > 100 µM (inactive)
CCCC[C@@H]1CCN2C[C@@H](O)[C@@H](O)[C@H]2[C@@H]1O | > 100 µM (inactive) | > 100 µM (inactive) | > 100 µM (inactive) | > 100 µM (inactive) | – | > 100 µM (inactive) | – | > 100 µM (inactive) | > 100 µM (inactive) | > 100 µM (inactive) | > 100 µM (inactive) | > 100 µM (inactive) | > 100 | > 100 µM (inactive) | > 100 µM (inactive) | > 100 µM (inactive) | > 100 µM (inactive) | –
CC(=O)Oc1ccc(/C=C/C(=O)NCC(NC(=O)/C=C/c2ccc(OC(C)=O)c(OC(C)=O)c2)C(=O)O)cc1OC(C)=O (stereo unspecified) | > 100 µM (inactive) | > 100 µM (inactive) | > 100 µM (inactive) | > 100 µM (inactive) | – | > 100 µM (inactive) | > 100 µM (inactive) | > 100 µM (inactive) | > 100 µM (inactive) | – | > 100 µM (inactive) | > 100 µM (inactive) | > 100 | > 100 µM (inactive) | > 100 µM (inactive) | 46.8 µM (inactive) | > 100 µM (inactive) | > 100 µM (inactive)

— ChEMBL document CHEMBL1201862, “PubChem BioAssay data set” (2004)
